Laboratory results from paper PMC8119466, “A screen of FDA-approved drugs identifies inhibitors of protein tyrosine phosphatase 4A3 (PTP4A3 or PRL-3)” (Scientific Reports, 2021).
Structures can show the parent of a compound that is named as a salt. Where two headings read alike, the source gives them in different places.

Experiments:
Format in all cases: biochemical
[1] = biological target: T1, recombinant PRL-3 (Homo sapiens, UniProt O75365); test: In vitro phosphatase assay (DiFMUP hydrolysis), PRL-3
T1 construct: 6xHis (N, cleaved yes); made in house; host or cells: E. coli One Shot BL21 Star

[2] = biological target: T2, recombinant PRL-2 (Homo sapiens, UniProt Q12974); test: In vitro phosphatase assay (DiFMUP hydrolysis), PRL-2;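 also: PRL-2 activity read as DiFMUP hydrolysis after 20 min at room temperature with drug, enzyme first pre-reduced at 4 °C for 20 min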
T2 construct: 6xHis (N, cleaved yes); made in house; host or cells: E. coli One Shot BL21 Star
T2 sequence (Q12974 1-167): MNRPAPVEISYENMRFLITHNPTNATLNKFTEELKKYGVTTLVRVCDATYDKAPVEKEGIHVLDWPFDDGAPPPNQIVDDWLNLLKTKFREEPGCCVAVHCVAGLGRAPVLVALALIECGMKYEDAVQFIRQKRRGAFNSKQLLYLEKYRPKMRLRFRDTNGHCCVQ

[3] = biological target: T3, recombinant PRL-1 (Homo sapiens, UniProt Q93096); test: In vitro phosphatase assay (DiFMUP hydrolysis), PRL-1
T3 construct: 6xHis (N, cleaved yes); made in house; host or cells: E. coli One Shot BL21 Star
T3 sequence (Q93096 1-173): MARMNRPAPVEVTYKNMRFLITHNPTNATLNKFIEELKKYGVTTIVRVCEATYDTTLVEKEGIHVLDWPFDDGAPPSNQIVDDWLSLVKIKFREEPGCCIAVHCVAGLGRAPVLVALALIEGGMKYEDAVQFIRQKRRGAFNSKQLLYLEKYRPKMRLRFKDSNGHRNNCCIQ

[4] = FDA-approved drug screen, compared to DMSO

T1 sequence (O75365 whole entry): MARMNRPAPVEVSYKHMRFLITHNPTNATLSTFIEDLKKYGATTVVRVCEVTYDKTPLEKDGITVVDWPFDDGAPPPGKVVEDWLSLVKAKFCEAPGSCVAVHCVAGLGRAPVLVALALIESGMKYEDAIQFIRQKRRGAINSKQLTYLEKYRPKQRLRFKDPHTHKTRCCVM

## N[C@@H](CCC(=O)N[C@@H](CS)C(=O)NCC(=O)O)C(=O)O [Glutathione]
[1]
  % Phosphatase Activity (compared to DMSO) PRL-3: 112%
[2]
  % Phosphatase Activity (compared to DMSO) PRL-2: 87%
[3]
  % Phosphatase Activity (compared to DMSO) PRL-1: 93%

## COc1ccc(Cl)cc1C(=O)NCCc1ccc(S(=O)(=O)NC(=O)NC2CCCCC2)cc1 [Glyburide]
[1]; [4]
  % Phosphatase Activity (compared to DMSO) PRL-3: 77%
[2]; [4]
  % Phosphatase Activity (compared to DMSO) PRL-2: 100%
[3]; [4]
  % Phosphatase Activity (compared to DMSO) PRL-1: 104%

## C[N+]1(C)CCC(OC(=O)C(O)(c2ccccc2)C2CCCC2)C1 (stereo not drawn) [Glycopyrrolate]
[1]; [4]
  % Phosphatase Activity (compared to DMSO) PRL-3: 82%
[2]; [4]
  % Phosphatase Activity (compared to DMSO) PRL-2: 101%
[3]; [4]
  % Phosphatase Activity (compared to DMSO) PRL-1: 108%

## CN1C2CCCC1CC(NC(=O)c1nn(C)c3ccccc13)C2 (stereo not drawn) [Granisetron HCl]
[1]; [4]
  % Phosphatase Activity (compared to DMSO) PRL-3: 93%
[2]; [4]
  % Phosphatase Activity (compared to DMSO) PRL-2: 74%
[3]; [4]
  % Phosphatase Activity (compared to DMSO) PRL-1: 86%

## COC1=CC(=O)C[C@@H](C)[C@]12Oc1c(Cl)c(OC)cc(OC)c1C2=O [Griseofulvin]
[1]; [4]
  % Phosphatase Activity (compared to DMSO) PRL-3: 90%
[2]; [4]
  % Phosphatase Activity (compared to DMSO) PRL-2: 125%
[3]; [4]
  % Phosphatase Activity (compared to DMSO) PRL-1: 112%

## COc1ccccc1OCC(O)CO (stereo not drawn) [Guaifenesin]
[1]; [4]
  % Phosphatase Activity (compared to DMSO) PRL-3: 100%
[2]; [4]
  % Phosphatase Activity (compared to DMSO) PRL-2: 92%
[3]; [4]
  % Phosphatase Activity (compared to DMSO) PRL-1: 102%

## N=C(N)N/N=C/c1c(Cl)cccc1Cl [Guanabenz Acetate]
[1]; [4]
  % Phosphatase Activity (compared to DMSO) PRL-3: 68%
[2]; [4]
  % Phosphatase Activity (compared to DMSO) PRL-2: 108%
[3]; [4]
  % Phosphatase Activity (compared to DMSO) PRL-1: 94%

## N=C(N)NC(=O)Cc1c(Cl)cccc1Cl [Guanfacine Hydrochloride]
[1]; [4]
  % Phosphatase Activity (compared to DMSO) PRL-3: 96%
[2]; [4]
  % Phosphatase Activity (compared to DMSO) PRL-2: 84%
[3]; [4]
  % Phosphatase Activity (compared to DMSO) PRL-1: 103%

## Cl.N=C(N)N [Guanidine HCl]
[1]; [4]
  % Phosphatase Activity (compared to DMSO) PRL-3: 86%
[2]; [4]
  % Phosphatase Activity (compared to DMSO) PRL-2: 108%
[3]; [4]
  % Phosphatase Activity (compared to DMSO) PRL-1: 103%

## CCC(=O)O[C@]1(C(=O)CCl)[C@@H](C)C[C@H]2[C@@H]3C[C@H](F)C4=CC(=O)C=C[C@]4(C)[C@@]3(F)[C@@H](O)C[C@@]21C [Halobetasol Propionate]
[1]; [4]
  % Phosphatase Activity (compared to DMSO) PRL-3: 77%
[2]; [4]
  % Phosphatase Activity (compared to DMSO) PRL-2: 88%
[3]; [4]
  % Phosphatase Activity (compared to DMSO) PRL-1: 88%

## O=C(CCCN1CCC(O)(c2ccc(Cl)cc2)CC1)c1ccc(F)cc1 [Haloperidol]
[1]; [4]
  % Phosphatase Activity (compared to DMSO) PRL-3: 93%
[2]; [4]
  % Phosphatase Activity (compared to DMSO) PRL-2: 100%
[3]; [4]
  % Phosphatase Activity (compared to DMSO) PRL-1: 93%

## FC(F)(F)C(Cl)Br (stereo not drawn) [Halothane]
[1]; [4]
  % Phosphatase Activity (compared to DMSO) PRL-3: 79%
[2]; [4]
  % Phosphatase Activity (compared to DMSO) PRL-2: 95%
[3]; [4]
  % Phosphatase Activity (compared to DMSO) PRL-1: 102%

## Oc1c(Cl)cc(Cl)c(Cl)c1Cc1c(O)c(Cl)cc(Cl)c1Cl [Hexachlorophene, reference compound]
[1]; 2.5 µM protein, DiFMUP at KM, read-out: Calculated IC50, PRL-3 phosphatase activity
  IC50: 13 ± 1 µM
[1]; [4]
  % Phosphatase Activity (compared to DMSO) PRL-3: -4%
[2]; 2.5 µM protein, DiFMUP at KM, read-out: Calculated IC50, PRL-2 phosphatase activity
  IC50: 35 ± 10 µM
[2]; [4]
  % Phosphatase Activity (compared to DMSO) PRL-2: -9%
[3]; 2.5 µM protein, DiFMUP at KM, read-out: Calculated IC50, PRL-1 phosphatase activity
  IC50: 31 ± 4 µM
[3]; [4]
  % Phosphatase Activity (compared to DMSO) PRL-1: -2.83%

## C[N+](C)(C)CCCCCC[N+](C)(C)C [Hexamethonium Bromide]
[1]; [4]
  % Phosphatase Activity (compared to DMSO) PRL-3: 84%
[2]; [4]
  % Phosphatase Activity (compared to DMSO) PRL-2: 89%
[3]; [4]
  % Phosphatase Activity (compared to DMSO) PRL-1: 87%

## CCCCCCc1ccc(O)cc1O [Hexylresorcinol]
[1]; [4]
  % Phosphatase Activity (compared to DMSO) PRL-3: 84%
[2]; [4]
  % Phosphatase Activity (compared to DMSO) PRL-2: 83%
[3]; [4]
  % Phosphatase Activity (compared to DMSO) PRL-1: 90%

## Cl.Cl.NCCc1c[nH]cn1 [Histamine 2HCl]
[1]
  % Phosphatase Activity (compared to DMSO) PRL-3: 71%
[2]
  % Phosphatase Activity (compared to DMSO) PRL-2: 118%
[3]
  % Phosphatase Activity (compared to DMSO) PRL-1: 97%

## C[N+]1(C)[C@@H]2CC[C@H]1C[C@@H](OC(=O)C(O)c1ccccc1)C2 (stereo partly drawn) [Homatropine Methylbromide]
[1]; [4]
  % Phosphatase Activity (compared to DMSO) PRL-3: 95%
[2]; [4]
  % Phosphatase Activity (compared to DMSO) PRL-2: 100%
[3]; [4]
  % Phosphatase Activity (compared to DMSO) PRL-1: 107%

## NNc1nncc2ccccc12 [Hydralazine HCl]
[1]
  % Phosphatase Activity (compared to DMSO) PRL-3: 87%
[2]
  % Phosphatase Activity (compared to DMSO) PRL-2: 85%
[3]
  % Phosphatase Activity (compared to DMSO) PRL-1: 102%

## NS(=O)(=O)c1cc2c(cc1Cl)NCNS2(=O)=O [Hydrochlorothiazide]
[1]; [4]
  % Phosphatase Activity (compared to DMSO) PRL-3: 76%
[2]; [4]
  % Phosphatase Activity (compared to DMSO) PRL-2: 122%
[3]; [4]
  % Phosphatase Activity (compared to DMSO) PRL-1: 97%

## C[C@]12CCC(=O)C=C1CC[C@@H]1[C@@H]2[C@@H](O)C[C@@]2(C)[C@H]1CC[C@]2(O)C(=O)CO [Hydrocortisone]
[1]; [4]
  % Phosphatase Activity (compared to DMSO) PRL-3: 79%
[2]; [4]
  % Phosphatase Activity (compared to DMSO) PRL-2: 91%
[3]; [4]
  % Phosphatase Activity (compared to DMSO) PRL-1: 102%

## CC[C@H]1CN2CC[C@H]1C[C@@H]2[C@@H](O)c1ccnc2ccc(OC)cc12 [Hydroquinidine]
[1]; [4]
  % Phosphatase Activity (compared to DMSO) PRL-3: 92%
[2]; [4]
  % Phosphatase Activity (compared to DMSO) PRL-2: 120%
[3]; [4]
  % Phosphatase Activity (compared to DMSO) PRL-1: 105%

## Oc1ccc(O)cc1 [Hydroquinone]
[1]
  % Phosphatase Activity (compared to DMSO) PRL-3: 70%
[2]
  % Phosphatase Activity (compared to DMSO) PRL-2: 91%
[3]
  % Phosphatase Activity (compared to DMSO) PRL-1: 90%

## CCN(CCO)CCCC(C)Nc1ccnc2cc(Cl)ccc12 (stereo not drawn) [Hydroxychloroquine Sulfate]
[1]; [4]
  % Phosphatase Activity (compared to DMSO) PRL-3: 100%
[2]; [4]
  % Phosphatase Activity (compared to DMSO) PRL-2: 100%
[3]; [4]
  % Phosphatase Activity (compared to DMSO) PRL-1: 96%

## CCCCCC(=O)O[C@]1(C(C)=O)CC[C@H]2[C@@H]3CCC4=CC(=O)CC[C@]4(C)[C@H]3CC[C@@]21C [Hydroxyprogesterone caproate]
[1]; [4]
  % Phosphatase Activity (compared to DMSO) PRL-3: 73%
[2]; [4]
  % Phosphatase Activity (compared to DMSO) PRL-2: 84%
[3]; [4]
  % Phosphatase Activity (compared to DMSO) PRL-1: 91%

## NC(=O)NO [Hydroxyurea]
[1]; [4]
  % Phosphatase Activity (compared to DMSO) PRL-3: 100%
[2]; [4]
  % Phosphatase Activity (compared to DMSO) PRL-2: 113%
[3]; [4]
  % Phosphatase Activity (compared to DMSO) PRL-1: 91%

## CN[C@H]1C[C@@H](N)[C@H](O)[C@@H](O[C@@H]2O[C@H](CO)[C@H](O)[C@@H]3OC4(O[C@H]23)O[C@H]([C@@H](N)CO)[C@H](O)[C@H](O)[C@H]4O)[C@@H]1O (stereo partly drawn) [Hygromycin B]
[1]; [4]
  % Phosphatase Activity (compared to DMSO) PRL-3: 103%
[2]; [4]
  % Phosphatase Activity (compared to DMSO) PRL-2: 98%
[3]; [4]
  % Phosphatase Activity (compared to DMSO) PRL-1: 91%

## C[C@H](Nc1ncnc2nc[nH]c12)c1cc2cccc(Cl)c2c(=O)n1-c1ccccc1 [IPI-145 (INK1197)]
[1]; [4]
  % Phosphatase Activity (compared to DMSO) PRL-3: 97%
[2]; [4]
  % Phosphatase Activity (compared to DMSO) PRL-2: 88%
[3]; [4]
  % Phosphatase Activity (compared to DMSO) PRL-1: 107%

## CCCCCN(C)CCC(O)(P(=O)([O-])O)P(=O)(O)O.[Na+] [Ibandronate sodium]
[1]; [4]
  % Phosphatase Activity (compared to DMSO) PRL-3: 109%
[2]; [4]
  % Phosphatase Activity (compared to DMSO) PRL-2: 96%
[3]; [4]
  % Phosphatase Activity (compared to DMSO) PRL-1: 93%

## CC(C)Cc1ccc(C(C)C(=O)O)cc1 (stereo not drawn) [Ibuprofen]
[1]; [4]
  % Phosphatase Activity (compared to DMSO) PRL-3: 82%
[2]; [4]
  % Phosphatase Activity (compared to DMSO) PRL-2: 87%
[3]; [4]
  % Phosphatase Activity (compared to DMSO) PRL-1: 99%

## CCCCCCCN(CC)CCCC(O)c1ccc(NS(C)(=O)=O)cc1.CCCCCCCN(CC)CCCC(O)c1ccc(NS(C)(=O)=O)cc1.O=C(O)/C=C/C(=O)O (stereo not drawn) [Ibutilide Fumarate]
[1]; [4]
  % Phosphatase Activity (compared to DMSO) PRL-3: 88%
[2]; [4]
  % Phosphatase Activity (compared to DMSO) PRL-2: 128%
[3]; [4]
  % Phosphatase Activity (compared to DMSO) PRL-1: 100%

## COc1cc(C(=O)O)ccc1NC(=O)[C@@H]1N[C@@H](CC(C)(C)C)[C@](C#N)(c2ccc(Cl)cc2F)[C@H]1c1cccc(Cl)c1F [Idasanutlin (RG-7388)]
[1]; [4]
  % Phosphatase Activity (compared to DMSO) PRL-3: 2%
[2]; [4]
  % Phosphatase Activity (compared to DMSO) PRL-2: 15%
[3]; [4]
  % Phosphatase Activity (compared to DMSO) PRL-1: 7%

## O=c1[nH]c(=O)n([C@H]2C[C@H](O)[C@@H](CO)O2)cc1I [Idoxuridine]
[1]; [4]
  % Phosphatase Activity (compared to DMSO) PRL-3: 90%
[2]; [4]
  % Phosphatase Activity (compared to DMSO) PRL-2: 103%
[3]; [4]
  % Phosphatase Activity (compared to DMSO) PRL-1: 94%

## O=C1C2CC3CC1CC(O)(C3)C2 [Idramantone]
[1]; [4]
  % Phosphatase Activity (compared to DMSO) PRL-3: 86%
[2]; [4]
  % Phosphatase Activity (compared to DMSO) PRL-2: 113%
[3]; [4]
  % Phosphatase Activity (compared to DMSO) PRL-1: 105%

## O=P1(NCCCl)OCCCN1CCCl (stereo not drawn) [Ifosfamide]
[1]; [4]
  % Phosphatase Activity (compared to DMSO) PRL-3: 78%
[2]; [4]
  % Phosphatase Activity (compared to DMSO) PRL-2: 99%
[3]; [4]
  % Phosphatase Activity (compared to DMSO) PRL-1: 100%
